# Results as given in PMC10216263, “Favorable Preclinical Pharmacological Profile of a Novel Antimalarial Pyrrolizidinylmethyl Derivative of 4-amino-7-chloroquinoline with Potent In Vitro and In Vivo Activities” (Biomolecules, 2023).
# Values joined by “and” are separate entries in the source; they are usually repeats but may differ in a detail not shown here. Equal entries are not always repeated. Where two headings read alike, the source gives them in different places.
# Columns and labels:
# [1] = system: P. falciparum IPC5202 (ARM-R); experiment: microbe, parasite or virus in culture; assay type: cell-based
# Experimental: The strains D10 and 3D7 (CQ-Sensitive), and V1-S (CQ, pyrimethamine and cycloguanil resistant), K1 (CQ and PYR resistant), W2 and FCR3 (CQ-Resistant), TM90C2A (CQ, MQ, PYR and ATQ resistant) and IPC 5202 (MR4-1240, artemisinin-resistant, K13 mutation, and R539T) of Pf were cultured in vitro as described by Trager and Jensen with minor modifications. Briefly, parasites were maintained at 5% hematocrit (human type A-positive red blood cells) in RPMI 1640 (EuroClone, S.p.A. Milan, Italy) medium with the addition of 10% heat inactivate human serum or 1% AlbuMax (In vitrogen, Milan, Italy), 20 mM Hepes and 2 mM glutamine (Euroclone), at 37 °C in a standard gas mixture consisting of 1–3% O2, 5% CO2, and 92–94% N2.
# Compounds were dissolved in either water or DMSO and then diluted with medium to achieve the required concentrations (final non-toxic DMSO concentration <1%). Asynchronous cultures of Pf with parasitaemia of 1–1.5% and 1% final hematocrit were aliquoted into 96-well flat-bottom microplates (Corning, Glendale, AZ, USA) with serial dilutions of test compounds and incubated for 72 h at 37 °C. Parasite growth was determined spectrophotometrically (OD650) by measuring the activity of the parasite lactate dehydrogenase (pLDH) according to a modified version of the method of Makler in control and drug-treated cultures.
# P. yoelii NS = experiment: Four-day suppressive Peters' test, oral; assay type: in vivo, P. yoelii in CD1 mice; conditions: once a day for 4 days, parasitemia day 4, CD1 mice
# Experimental: Groups of five CD1 mice were inoculated i.v., with 4 × 10^6 infected erythrocytes/mice. Compounds, dissolved in standard suspending formula (SSV) (0.5% sodium carboxymethylcellulose, 0.5% benzyl alcohol, 0.4% Tween 80, and 0.9% NaCl), were administered once a day for 4 days via oral gavage, starting two hours post-infection. […] Parasitemia was evaluated using microscopic examination of Giemsa-stained blood films taken on day four, processed using MICROSOFT® EXCEL spreadsheets (Microsoft Corp., Redmond, WA, USA), and expressed as percentages of inhibition from the arithmetic mean parasitemia of each group in relation to the untreated group. ED50 and ED90 values were calculated using GraphPad Prism 6 (GraphPad Software Inc., La Jolla, CA, USA).
# [2] = Plasma protein binding by ultrafiltration, human, rat and dog; assay type: in vitro ADME; conditions: male, SD (rat), Beagle (dog), read-out: free fraction
# Experimental: Plasma protein binding was performed via ultrafiltration (30,000 D cutoff, Amicon, Merck) with heparinized blood samples (male SD rats, Charles River Italy, and male Beagle dogs, Marshall Farms, Europe, Lyon, France) and fresh and frozen heparinized human blood samples collected from fasted healthy male subjects (at least two subjects for plasma samples), were supplied by AAI, Germany. MG3 final concentrations of 100, 300 and 1000 ng/mL were prepared using a 10 mg/mL stock solution while control samples at the same concentrations diluted in DPBS buffer (Dulbecco’s Phosphate Buffered Saline, Sigma-Aldrich) to evaluate the recovery. […] The percentage of bound drug (% Fbound) and of unbound drug (% Ffree) was determined using the following equations: % Fbound = [(Conc. Total–Conc. Free)/Conc. […] Total is the compound concentration determined in plasma and Conc. Free is the compound concentration determined in the ultrafiltrated samples. Results were expressed as % of binding and % of free fraction (single values and mean ± SD). […] Blood to plasma ratio was calculated as: Conc. in blood/Conc. in plasma; where, Conc. is the compound concentration determined in blood and in plasma at the same time of incubation.
# P. falciparum 3D7 (CQ-S) = experiment: In vitro combination study (isobologram, ∑FIC); assay type: cell-based
# [3] = system: Pf-3D7 gametocytes >95% Stage I-III; experiment: Gametocyte luciferase assay (3D7elo1-pfs16-CBG99); assay type: cell-based, P. falciparum
# Experimental: (§1) In vitro activity of MG3 against P falciparum sexual gametocyte stages […]
# (§2) luminescent transgenic 3D7 strain (3D7elo1-pfs16-CBG99) at two different stages (I-III and V) using the […]
# (§3) Briefly, 100 µL of culture medium were removed from each well to increase hematocrit; 70 µL of resuspended culture were transferred to a black 96-well plate; 70 µL of D-luciferin (1 mM in citrate buffer 0.1 M, pH 5.5) were added. Luminescence measurements were performed after 10 min with 500 ms integration time using a Synergy4-BioTek reader.
# (§4) (1 picture or pasted object on this page, not shown here)
# [4] = system: Pf-3D7 gametocytes >95% Stage V; experiment: Gametocyte luciferase assay (3D7elo1-pfs16-CBG99); assay type: cell-based, P. falciparum; conditions: Plasmodium falciparum, 3D7, read-out: Pf-3D7 gametocytes IC50 (nM), >95% Stage V
# Experimental: as §1, §2, §3, §4
# P. falciparum D10 (CQ-S) = system: P. falciparum D10 (CQ-S); parameters: method as in PMID 18538567; conditions: 72 h incubation, pLDH method, mean of 3 experiments; cited from earlier work
# [5] = CD1, mouse, in vivo, po, 10 mg/kg
smiles,measurement,setting,value
"Clc1ccc2c(NCC34CCCN3CCC4)ccnc2c1 [MG3, 7-Chloro-N-((hexahydro-1H-pyrrolizin-7a-yl)methyl)quinolin-4-amine]",IC50,"[1]; Plasmodium falciparum, 72 h, read-out: P. falciparum IC50 nM, IPC5202 (ARM-R), 72 h incubation, pLDH method",< 15 nM
same,IC50,"[1]; read-out: P. falciparum IC50 nM, IPC5202 (ARM-R), 72 h incubation, pLDH method",10 nM and 10.7 nM
same,ED50,"P. yoelii NS; Plasmodium yoelii, 96 h, read-out: ED50 (95% CI) Mean",5.01 mg/kg
same,ED90 (95% CI) Mean,P. yoelii NS,8.98 (6.70–12.02) mg/kg
same,fraction unbound,[2],0.16 to 0.33
same,Mean ∑FIC50 (95% CI),"P. falciparum 3D7 (CQ-S); in combination with ASN, 3D7, IC50 level",1.43 (1.30 – 1.55)
same,Mean ∑FIC50 (95% CI),"P. falciparum 3D7 (CQ-S); in combination with DHA, 3D7, IC50 level",1.49 (1.33 – 1.65)
same,Mean ∑FIC50 (95% CI),"P. falciparum 3D7 (CQ-S); in combination with RKA-182, 3D7, IC50 level",1.45 (1.17 – 1.73)
same,interaction (isobologram),"P. falciparum 3D7 (CQ-S); in combination with azitromycin, 3D7 (CQ-S)",additive
same,IC50,"[3]; Plasmodium falciparum, 3D7, read-out: Pf-3D7 gametocytes IC50 (nM), >95% Stage I-III, luciferase readout, 3D7elo1-pfs16-CBG99",102 ± 22.1 nM
same,IC50,"[3]; read-out: Pf-3D7 gametocytes IC50 (nM), >95% Stage I-III, luciferase readout, 3D7elo1-pfs16-CBG99",~100 nM
same,IC50,[4],10700 ± 2790 nM
same,IC50,P. falciparum D10 (CQ-S),30.6 nM
same,AUClast,[5],"41,067 min*ng/mL"
